The results in this text go back to US20240101535A1, “DIHYDROISOQUINOLINONE DERIVATIVE AND APPLICATION THEREOF” (ETERN BIOPHARMA (SHANGHAI) CO., LTD., priority 2020, published 2024).

Counter-ions that a name gives are not always drawn. Like-named read-outs stand apart in the source and are kept apart here.

Experiment [1] has as its target WDR5 protein (22-334aa) with MLL1 polypeptide (3672-3773aa) (Homo sapiens, UniProt P61964). Nature of the experiment: WDR5-MLL PPI inhibitory activity test (HTRF). In kind it is binding. Particulars: His-tagged WDR5 and biotin-tagged MLL1 polypeptide. In short, it runs like this: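 His-tagged WDR5 (42 nM working solution) was preincubated with compound for 60 min at room temperature in 25 mM HEPES pH 7.5, 100 mM NaCl, 0.05% Tween 20 (final DMSO 0.5%). Biotin-MLL1 peptide (333 nM working solution) was then added for 10 min, followed by Eu-cryptate/streptavidin-APC detection for 60 min. The 665/620 nm ratio gave IC50.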
A general note: TR-FRET usually uses a lanthanide donor and a delayed reading to cut background.

The test system of a further experiment is MV4-11 cells. The experiment can be described thus: MV4-11 cell proliferation inhibition experiment (CellTiter-Glo). In kind it is cell-based. Particulars: 6 days.
Another experiment relates to Jurkat cells. The experiment can be described thus: Jurkat cell proliferation inhibition experiment (CellTiter-Glo). In kind it is cell-based. Particulars: for IC50: Homo sapiens, 144 h, Jurkat cells, 6 days, CellTiter-Glo, read-out: Jurkat cell proliferation inhibitory activity IC50; for selectivity: ratio of Jurkat cell IC50 to MV4-11 cell IC50. As for the experimental part: Test Example 3: Jurkat (ATCC: TIB-152) Cell Proliferation Inhibition Experiment
ATP in living cells was quantitatively detected by CellTiter-Glo (Promega-G7573) Luminescence Cell Viability Assay Kit to determine the effect of the compounds to be tested on cell proliferation. • Step 1: Jurkat cells were seeded in 96-well plates (Greiner-655098) at a density of 1,500 cells per well with a volume of 140 μL per well; Cell culture medium components included RPM11640 (Gibco-A10491-01)+10% FBS (Gibco-10099-141C)+1% Penicillin-Streptomycin (5,000 U/mL, Gibco-15070-063). • Step 2: On the day of cell seeding, the cells were treated with the compound to be tested. The compound to be tested was diluted with a 3-fold gradient, and a total of 9 concentration gradients were set. DMSO (Sigma, D2650) with 0.5% final concentration or a DMSO solution containing the compound to be tested was added per well with 2 or 3 replicate wells at each concentration point. The plates were incubated at 37° C. in a 5% CO2 incubator (Thermo Scientific Steri-Cycle 371) for 6 days. • Step 3: The cell viability in the control and treatment groups was detected with CellTiter-Glo Luminescent Cell Viability Assay Kit. 50 μL of CellTiter-Glo was added per well, mixed well, and incubated for 15 min at room temperature protected from light. According to the kit instructions, the chemiluminescence signal was read using a multifunctional microplate reader (EnVision, PerkinElmer).
The inhibition percentage (%) of the compound at each concentration point was calculated by the following formula:
Inhibition Percentage (%)=(1−signal value of the group treated with the compound/signal value of the group treated with DMSO)*100.
The value of cell proliferation semi-inhibitory concentration IC50 was calculated using GraphPad Prism software, and the results are shown in Table 3. The ratio of Jurkat cell proliferation inhibitory activity IC50 to MV4-11 cell proliferation inhibitory activity IC50 may be further calculated to obtain selectivity.
On the technique in general: Cellular ATP, detected with luciferase, serves as a proxy for viable cell number.

Setting [2] is: Homo sapiens, 144 h, read-out: MV4-11 cell proliferation inhibitory activity IC50.
Where [3] appears, read: Homo sapiens, 144 h, read-out: cell proliferation inhibitory activity.

As to `CCOc1cc([C@H](C)N2C[C@@]3(CC3(F)F)c3c(CN(C)C)cc(Cn4ccnc4NC)cc3C2=O)ncc1C#N` (stereo in doubt) [Compound 94, 6-(-1-(5′-((dimethylamino)methyl)-2,2-difluoro-7′-((2-(methylamino)-1H-imidazol-1-yl)methyl)-1′-one-1′H-spiro[cyclopropan-1,4′-isoquinoline]-2′(3′H)-yl)ethyl)-4-ethoxynicotinonitrile formate salt], the IC50 in experiment [1] is less than 20 nM; in the experiment with MV4-11 cells (setting [2]), 3 nM; in the experiment with MV4-11 cells (setting [3]), less than 50 nM; in the experiment with Jurkat cells, 1400 nM. Further, the selectivity in the experiment with Jurkat cells is 466 time.

On to `CCOc1cc([C@H](C)N2CC3(CC3)c3c(CN(C)C)cc(Cn4ccnc4NC)cc3C2=O)ncc1F` [Compound 1, (S)-5′-((dimethylamino)methyl)-2′-(1-(4-ethoxy-5-fluoropyridine-2-yl)ethyl)-7′-((2-(methylamino)-1H-imidazol-1-yl)methyl)-2′,3′-dihydro-1′H-spiro[cyclopropan-1,4′-isoquinoline]-1′-one], for which the IC50 is less than 20 nM in experiment [1], 19 nM with MV4-11 cells (setting [2]), 50 to 200 nM in the experiment with MV4-11 cells (setting [3]) and 6800 nM in the experiment on Jurkat cells. For the same molecule, the selectivity in the experiment on Jurkat cells was 357 time.

`CCOc1cc([C@H](C)N2CC3(CCC3)c3c(CN(C)C)cc(Cn4ccnc4NC)cc3C2=O)ncc1C#N` [Compound 23, (S)-6-(1-(5′-((dimethylamino)methyl)-7′-((2-(methylamino)-1H-imidazol-1-yl)methyl)-1′-one-1′H-spiro[cyclobutan-1,4′-isoquinoline]-2′(3′H)-yl)ethyl)-4-ethoxynicotinonitrile]: the IC50 in experiment [1] is less than 20 nM; with MV4-11 cells (setting [2]), 4 nM; in the experiment on MV4-11 cells (setting [3]), less than 50 nM; in the experiment on Jurkat cells, 1400 nM. Further, the selectivity with Jurkat cells was 350 time.

Take `CCOc1cc([C@H](C)N2CC3(CCC3)c3c(CN4CC[C@@H](O)C4)cc(Cn4ccnc4NC)cc3C2=O)ncc1F` [Compound 84, 2′-((S)-1-(4-ethoxy-5-fluoropyridine-2-yl)ethyl)-5′-(((R)-3hydroxylpyrrolidin-1-yl)methyl)-7′-((2-(methylamino)-1H-imidazol-1-yl)methyl)-2′,3′-dihydro-1′H-spiro[cyclobutyl-1,4′-isoquinoline]-1′-one]: the values for the IC50 (in experiment [1]; in the experiment with MV4-11 cells (setting [3])) were less than 20 nM and less than 50 nM, respectively.

For the molecule `CCOc1cc([C@H](C)N2CC3(CCC3)c3c(CN4CC[C@H](O)C4)cc(Cn4ccnc4NC)cc3C2=O)ncc1F` [Compound 85, 2′-((S)-1-(4-ethoxy-5-fluoropyridine-2-yl)ethyl)-5′-(((S)-3-hydroxylpyrrolidin-1-yl)methyl)-7′-((2-(methylamino)-1H-imidazol-1-yl)methyl)-2′,3′-dihydro-1′H-spiro[cyclobutan-1,4′-isoquinoline]-1′-one], the IC50 was less than 20 nM in experiment [1] and less than 50 nM in the experiment on MV4-11 cells (setting [3]).

`CCOc1cc(CN2CC3(CCC3)c3c(CN4CCN(C)CC4)cc(Cn4ccnc4NC)cc3C2=O)nn1C` [Compound 87, 2′-((5-ethoxy-1-methyl-1H-pyrazole-3-yl)methyl)-7′-((2-(methylamino)-1H-imidazol-1-yl)methyl)-5′-((4-methylpiperazin-1-yl)methyl)-2′,3′-dihydro-1′H-spiro[cyclobutan-1,4′-isoquinoline]-1′-one]: the IC50 in experiment [1] is less than 20 nM; in the experiment with MV4-11 cells (setting [3]), less than 50 nM.

Regarding `CCOc1cc([C@H](C)N2C[C@]3(CC3(F)F)c3c(CN(C)C)cc(Cn4ccnc4NC)cc3C2=O)ncc1F` [Compound 91, (S)-5′-((dimethylamino)methyl)-2′-((S)-1-(4-ethoxy-5-fluoropyridine-2-yl)ethyl)-2,2-difluoro-7′-((2-(methylamino)-1H imidazol-1-yl)methyl)-2′, 3′-dihydro-1′H-spiro[cyclopropan-1,4′-isoquinoline]-1′-one], the IC50 in experiment [1] was less than 20 nM; in the experiment with MV4-11 cells (setting [2]), 10 nM; in the experiment with MV4-11 cells (setting [3]), less than 50 nM; in the experiment with Jurkat cells, 3100 nM. The selectivity in the experiment on Jurkat cells amounted to 310 time.

For the molecule `CCOc1cc([C@H](C)N2CC3(CC(F)(F)C3)c3c(CN(C)C)cc(Cn4ccnc4NC)cc3C2=O)ncc1F` [Compound 98], the IC50 is less than 20 nM in experiment [1] and 50 to 200 nM in the experiment with MV4-11 cells (setting [3]).

Consider `CCOc1cc([C@H](C)N2CC3(CC(F)(F)C3)c3c(CN(C)C)cc(Cn4ccnc4NC)cc3C2=O)ncc1C#N` [Compound 99], for which the IC50 in experiment [1] is less than 20 nM; with MV4-11 cells (setting [2]) it was 4 nM; in the experiment on MV4-11 cells (setting [3]), less than 50 nM; in the experiment with Jurkat cells it was 1200 nM. The selectivity in the experiment on Jurkat cells is reported as 300 time.

`[2H]C([2H])([2H])N(Cc1cc(Cn2ccnc2NC)cc2c1C1(CCC1)CN(C(C)c1cc(OCC)c(C#N)cn1)C2=O)C([2H])([2H])[2H]` (stereo not shown) [Compound 100, 6-(1-(5′-((bis(methyl-d3)amino)methyl)-7′-((2-(methylamino)-1H-imidazol-1′-yl)methyl)-1′-oxo-1′H-spiro [cyclobutan-1,4′-isoquinoline]-2′(3′H)-yl)ethyl)-4-ethoxynicotinonitrile]: the IC50 in experiment [1] was less than 20 nM; in the experiment with MV4-11 cells (setting [2]), 5 nM; with MV4-11 cells (setting [3]), less than 50 nM; in the experiment with Jurkat cells, 1600 nM. The selectivity in the experiment with Jurkat cells worked out at 320 time.

For the molecule `[2H]C(C)(c1cc(OCC)c(C#N)cn1)N1CC2(CCC2)c2c(CN(C)C)cc(Cn3ccnc3NC)cc2C1=O` (stereo not shown) [Compound 101], the IC50 is less than 20 nM in experiment [1] and less than 50 nM in the experiment on MV4-11 cells (setting [3]).

With `CNc1nccn1Cc1cc(CN(C)C)c2c(c1)C(=O)N(C(C)c1ccc(F)c(OC)c1)CC21CCC1` (stereo not shown) [Compound 107, 5′-((dimethylamino)methyl)-2′-(1-(4-fluoro-3-methoxyphenyl)ethyl)-7′-((2-(methylamino)-1H-imidazol-1-yl)methyl)-2′,3′-dihydro-1′H-spiro[cyclobutan-1,4′-isoquinoline]-1′-one], the IC50 was less than 20 nM in experiment [1] and less than 50 nM with MV4-11 cells (setting [3]).

Regarding `[2H]C([2H])([2H])C([2H])([2H])Oc1cc(C(C)N2CC3(CCC3)c3c(CN(C)C)cc(Cn4ccnc4NC)cc3C2=O)ncc1C#N` (stereo not shown) [Compound 111, 6-(1-(5′-((dimethylamino)methyl)-7′-((2-(methylamino)-1H-imidazol-1-yl)methyl)-1′-oxo-1′H-spiro[cyclobutan-1,4′-isoquinoline]-2′(3′H)-yl)ethyl)-4-(ethoxy-d5)nicotinonitrile], the values for the IC50 (in experiment [1]; in the experiment with MV4-11 cells (setting [3])) were less than 20 nM and less than 50 nM, respectively.

For the molecule “(S)-4-ethoxy-6-(1-(7′-((2-(methylamino)-1H-imidazol-1-yl)methyl)-5′-(morpholinomethyl)-1′-one-1′H-spiro[cyclopropan-1,4′-isoquinoline]-2′(3′H)-yl)ethyl)nicotinonitrile [Compound 60]”, the IC50 in experiment [1] was less than 20 nM; in the experiment on MV4-11 cells (read-out: cell proliferation inhibitory activity), less than 50 nM.
